From ChEMBL document CHEMBL4359850, “Synthesis, in vivo and in silico anticonvulsant activity studies of new derivatives of 2-(2,4-dioxo-1,4-dihydroquinazolin-3(2H)-yl)acetamide” (Eur J Med Chem, 2019) come the findings set out here.

For data set [1], the system named is Mus musculus. Description: Anticonvulsive activity in pentylenetetrazole-induced seizure albino mouse model assessed as proportion of animals with clonic convulsion at 100 mg/kg, ig administered 30 mins prior to pentylenetetrazole challenge and mesured for 60 mins (reference value: 100 %). The format is functional.
A short description of data set [2]: Toxicity in albino mouse assessed as motor coordination impairment by measuring animal fall-off from rod before 1 min at 100 mg/kg, ig administered 30 mins prior to test by rotarod test (reference value: 17%). The format is organism-based. The following applies: in vivo, po.
Data set [3] relates to Mus musculus. Description: Anticonvulsive activity in pentylenetetrazole-induced seizure albino mouse model assessed as duration time of convulsion period at 100 mg/kg, ig administered 30 mins prior to pentylenetetrazole challenge and mesured for 60 mins (reference value: 12 +/- 1.34 min). The format is functional.
Data set [4] is described as follows: Toxicity in albino mouse assessed as motor coordination impairment by measuring animal fall-off from rod before 2 mins at 100 mg/kg, ig administered 30 mins prior to test by rotarod test (reference value: 33%). It counts as organism-based. The following applies: in vivo, po.
Data set [5] relates to Mus musculus. Briefly: Anticonvulsive activity in pentylenetetrazole-induced seizure albino mouse model assessed as number of clonic and tonic convulsion at 100 mg/kg, ig administered 30 mins prior to pentylenetetrazole challenge and mesured per animal for 60 mins (reference value: 3.58 +/- 0.42). It counts as functional.
Data set [6] relates to Mus musculus. Description: Anticonvulsive activity in pentylenetetrazole-induced seizure albino mouse model assessed as lifetime of animal to death at 100 mg/kg, ig administered 30 mins prior to pentylenetetrazole challenge and mesured for 60 mins (reference value: 17.45 +/- 1.85 min). The format is functional.
Data set [7] in a line: Toxicity in albino mouse assessed as motor coordination impairment by measuring animal fall-off from rod before 5 mins at 100 mg/kg, ig administered 30 mins prior to test by rotarod test (reference value: 50%). The format is organism-based. The conditions noted are these: in vivo, po.
Data set [8] deals with Mus musculus. Description: Anticonvulsive activity in pentylenetetrazole-induced seizure albino mouse model assessed as lethality at 100 mg/kg, ig administered 30 mins prior to pentylenetetrazole challenge and mesured for 60 mins (reference value: 91.7%). The format is functional.
Data set [9] in a line: Toxicity in albino mouse assessed as motor coordination impairment by measuring animal fall-off from rod before 3 mins at 100 mg/kg, ig administered 30 mins prior to test by rotarod test (reference value: 33%). It counts as organism-based. The following applies: in vivo, po, 0.05 h.
Data set [10] deals with Mus musculus. Description: Anticonvulsive activity in pentylenetetrazole-induced seizure albino mouse model assessed as latecy time at 100 mg/kg, ig administered 30 mins prior to pentylenetetrazole challenge and mesured for 60 mins (reference value: 5.79 +/- 0.58 min). It counts as functional.
Data set [11] concerns Mus musculus. Briefly: Anticonvulsive activity in albino mouse assessed as protection against pentylenetetrazole-induced seizure by measuring severity of convulsion at 100 mg/kg, ig administered 30 mins prior to pentylenetetrazole challenge and mesured for 60 mins (reference value: 5.83 +/- 0.17). It counts as functional.
In data set [12] the test system is Mus musculus. Description: Anticonvulsive activity in pentylenetetrazole-induced seizure albino mouse model assessed as proportion of animals with tonic convulsion at 100 mg/kg, ig administered 30 mins prior to pentylenetetrazole challenge and mesured for 60 mins (reference value: 100%). The format is functional.

As to `C=CCNC(=O)Cn1c(=O)[nH]c2ccccc2c1=O`, the Activity in the data set with Mus musculus [1] came out at 100%; in data set [2], 33%; in [4] it was 50%; in the data set with Mus musculus [5], 2.2; in data set [7] it was 67%; with Mus musculus [8], 60%. Also, the Activity in data set [9] is given as 50%; in the data set on Mus musculus [11], 5; with Mus musculus [12] it was 80%. Further, the values for the Time in the data set on Mus musculus [3], in the data set on Mus musculus [6] and with Mus musculus [10] were 9.8 min, 16.95 min and 6.6 min, respectively.
Regarding `O=C(Cn1c(=O)[nH]c2ccccc2c1=O)NCc1ccccc1`, the Activity came to 100% in the data set with Mus musculus [1]; 17% in data set [2]; 33% in data set [4]; 3 in the data set with Mus musculus [5]; 50% in data set [7]; 80% with Mus musculus [8]. In addition, the Activity in data set [9] is on record as 50%; with Mus musculus [11], 5.6; in the data set with Mus musculus [12], 100%. For the same compound, the Time with Mus musculus [3] was 14.05 min; in the data set with Mus musculus [6], 17.5 min; in the data set on Mus musculus [10], 4.96 min.
Take `O=C(Cn1c(=O)[nH]c2ccccc2c1=O)NCCc1ccccc1`: the Activity in the data set on Mus musculus [1] is 100%; in data set [2], 33%; in [4] it was 50%; with Mus musculus [5] it was 1.8; in [7], 67%; in the data set with Mus musculus [8], 80%. The Activity in [9] was found to be 50%; in the data set with Mus musculus [11], 5.6; in the data set on Mus musculus [12], 100%. Moreover, the figures for the Time in the data set on Mus musculus [3], in the data set on Mus musculus [6] and in the data set with Mus musculus [10] were 9.98 min, 17.79 min and 11.43 min, respectively.
For `O=C(Cn1c(=O)[nH]c2ccccc2c1=O)NCCCc1ccccc1`, the Activity came to 80% in the data set on Mus musculus [1]; 17% in data set [2]; 33% in data set [4]; 1.2 with Mus musculus [5]; 50% in data set [7]; 40% with Mus musculus [8]. Moreover, the Activity in [9] is 50%; in the data set with Mus musculus [11], 4; in the data set with Mus musculus [12], 80%. Moreover, the Time in the data set on Mus musculus [3] was 3.05 min; with Mus musculus [6] it was 12.16 min; in the data set with Mus musculus [10], 15.51 min.
With `O=C(Cn1c(=O)[nH]c2ccccc2c1=O)Nc1ccccc1`, the Activity was found to be 100% in the data set with Mus musculus [1]; 17% in [2]; 33% in data set [4]; 1.22 in the data set with Mus musculus [5]; 67% in data set [7]; 33.3% with Mus musculus [8]. The Activity in data set [9] amounted to 50%; in the data set on Mus musculus [11], 4.22; with Mus musculus [12], 55.5%. Also, the Time with Mus musculus [3] was determined as 1.24 min; with Mus musculus [6] it was 7.14 min; with Mus musculus [10], 10.57 min.
As for `CCCNC(=O)Cn1c(=O)[nH]c2ccccc2c1=O`, the Activity is on record as 100% with Mus musculus [1]; 33% in data set [2]; 50% in [4]; 1.4 in the data set on Mus musculus [5]; 50% in [7]; 40% with Mus musculus [8]. Besides, the figures for the Activity (in [9]; in the data set on Mus musculus [11]; in the data set with Mus musculus [12]) were 50%, 5 and 100%, respectively. Also, the Time with Mus musculus [3] is given as 2.2 min; in the data set with Mus musculus [6] it was 6.89 min; in the data set with Mus musculus [10], 7.5 min.
As to `O=C(Cn1c(=O)[nH]c2ccccc2c1=O)NC1CCCCC1`, the Activity in the data set on Mus musculus [1] worked out at 100%; in [2] it was 17%; in [4], 33%; in the data set with Mus musculus [5], 3.2; in data set [7] it was 50%; in the data set on Mus musculus [8], 80%. The Activity in data set [9] came out at 50%; with Mus musculus [11], 5.6; with Mus musculus [12], 100%. Besides, the Time in the data set on Mus musculus [3] was 13.11 min; in the data set on Mus musculus [6], 11.53 min; in the data set with Mus musculus [10] it was 3.8 min.
